Measurements: PMC7876106 (Scientific Reports, 2021)

Legend:
TERRA = test: CD spectroscopy of TERRA mixed with compound; settings: 1:1 molar ratio, 150 mM KCl buffer
Protocol: All nucleic acids were dissolved in buffer containing 20 mM HEPES pH7.5, 150 mM salt (KCl or LiCl), 20% PEG8000 at the concentration of 10 μM for experiments. A J-815 spectrometer equipped with a PFD-425S Peltier cell holder was used to measure CD spectra at 4 °C between 200 and 340 nm to determine the secondary structure content of various oligo constructs. The molar ellipticity was calculated and the plot was made using Excel.

[1] = tested on: telomere repeat DNA in LOX cells; test: Telomere length analysis (PFGE, Southern blot) of LOX cells; type: cell-based, human; settings: for telomere repeat DNA signals: TLA
Protocol: Genomic DNA was isolated from cells using a genomic DNA purification kit (Promega) and digested with AluI and MboI. Digested genomic DNA was purified by phenol/choloroform extraction and quantified using a Qubit 4 Fluorometer (Thermal Scientific). Equal amounts of digested DNA (5 μg) were separated by pulse-field gel electrophoresis (PFGE) performed with a 1% agarose gel at 6V/cm, switch times from 1 to 12s, 15 °C for 12h using CHEF-DRIII system (Bio-Rad). The DNA was transferred to GeneScreen Plus blotting membranes (Perkin-Elmer) and analyzed by Southern blot. The blots were hybridized with a 32P-labeled telomere repeat or […]
Alu probe at 42 °C overnight, then washed twice for 5 min each with 0.2 M wash buffer (0.2 M Na2HPO4 pH 7.2, 1 mM EDTA, and 2% SDS) at room temperature and once for 10 min with 0.1 M wash buffer at 42°C. Relative telomere-repeat signals were determined by Typhoon 9410 Imager and ImageQuant TL software (GE Healthcare). Signal intensity represents the percentage decrease of average telomere signals relative to dox (-) or PP control. […]
(§1) 100, 1 mM EDTA in 1x PBS) before immuno-staining. Primary antibodies were prepared in blocking solution at following dilutions: anti-53BP1 (1:500, IHC-00001; Bethyl Laboratories) and γH2AX (1:2,000, A300-081A; Bethyl Laboratories). After IF, cells were fixed in 4% paraformaldehyde in 1x PBS for 10 min, washed in 1x PBS, dehydrated in ethanol series (70%, 95%, 100%), and air-dried. Coverslips were denatured for 5 min at 80-85° C in hybridization mix [70% formamide, 10 mM Tris-HCl, pH 7.2, and 0.5% blocking solution (Roche)] containing telomeric PNA-Cy3-(CCCTAA)3 probe, and hybridization was continued for 2 hrs at room temperature in the dark moisturized chambers. Coverslips were washed twice for 15 min each with 70% formamide, 10 mM Tris-HCl (pH 7.2), and 0.1% BSA, and followed by three washes for 5 min each with 0.15 M NaCl, 0.1 M Tris-HCl (pH 7.2), and 0.08% Tween-20. Nuclei were counterstained with 0.1 µg/ml DAPI in blocking solution and coverslips mounted with VectorShield (Vector Laboratories). RNA FISH was performed as previously described 1.
Images were captured with a 100x lens on a Nikon E600 Upright microscope (Nikon

LOX cells = test: TIF assay (IF FISH, γH2AX or 53BP1 with telomere DNA) in LOX cells; type: cell-based, human; settings: 2 μM, 3 days
Protocol: Mei et al, 2020 TERRA Requires TRF2 GAR Domain […]
as §1, with “Indirect immunofluorescence (IF) combined with fluorescence in situ hybridization (FISH) analysis for telomere dysfunction was performed as described 4 with some modifications. Briefly, cells grown on coverslips were fixed for 15 min in 2% paraformaldehyde/1x PBS at RT, followed by permeabilization for 10 min in 1x PBS/0.5% Triton X-100 at RT. After washing with 1x PBS, cells were incubated for 60 min in blocking solution (0.5% BSA, 0.2% fish gelatin, 0.1% Triton X-100,” for “100,”
Images were captured with a 100x lens on a Nikon E600 Upright microscope (Nikon […]
Instruments, Inc., Melville, NY) with ImagePro Plus software (Media Cybernetics, Silver Spring, MD) for image processing. Cells with > 5 53BP1/γH2AX foci co-localizing with telomere DNA foci were scored as positive for TIF. The quantification was generated from at least three independent Immuno-FISH experiments. […]
0.1 μg/mL DAPI in 1x PBS and slides were mounted with VectorShield (Vector Laboratories).
Images were taken with a 100x lens on a Nikon E600 Upright microscope (Nikon Instruments) using ImagePro Plus software (Media Cybernetics) for image processing. Statistical analysis was performed using two-tailed Student t Test.

[2] = tested on: TeloDNA antisense (5'-fluorescein) (DNA, single strand) CCCTAACCCTAACCCTAACCCTAA; test: fluorescence polarization; settings: 150 mM salt (KCl, NaCl or LiCl; which not stated); 20 mM HEPES pH 7.5, room temperature, tRNA competitor; dilutions from 50 μM compound
[3] = tested on: TeloDNA (unlabelled) (DNA, G4) TTAGGGTTAGGGTTAGGGTTAGGG; test: fluorescence polarization, displacement of TRF2 GAR peptide; settings: 150 mM KCl, NaCl or LiCl (salt not specified); 20 mM HEPES; 20 mM HEPES pH 7.5, room temperature; FITC-TRF2 GAR peptide 10 nM displaced; 5 μM oligo

Row | Structure (SMILES) | alteration of CD spectrum of TERRA at major peak (~260 nm) (TERRA) | average telomere length ([1]; 2 μM, 2 and 3 days) | telomere repeat DNA signals [1] | increase in telomere-associated γH2AX compared to PP treatment (LOX cells) | level of γH2AX or 53BP1 associated telomere dysfunction-induced foci (TIFs) (LOX cells) | binding [2] | IC50 [3]
1 | CCc1c(C)c2cc3nc(cc4nc(cc5c(CC)c(C)c(cc1[nH]2)n5C)C(C)=C4CCC(=O)O)C(CCC(=O)O)=C3C [NMM, N-methyl mesoporphyrin IX] | altered the CD spectrum of TERRA | decrease in average telomere length | reduced telomere repeat DNA signals | ~ fivefold increase | high level | no | 1000 nM
2 | CN(C)c1ccc(Nc2c3ccc(NC(=O)CCN4CCCC4)cc3nc3cc(NC(=O)CCN4CCCC4)ccc23)cc1 [BRACO-19] | not BRACO-19 or PP altered the CD spectrum | – | to a lesser extent | ~ three fold increase | moderate level | no | 40 nM
